Measured values published in patent US7939272B2, “Biological markers predictive of anti-cancer response to insulin-like growth factor-1 receptor kinase inhibitors” (OSI Pharmaceuticals, Inc., priority 2007, dated 2011).
Read-outs that look alike come from different tables or passages of the source.

What was measured:
BxPC3 cells = test: Cell-Titer Glo cell growth inhibition; assay type: cell-based, human; conditions: BxPC3, growth inhibition by an IGF-1R kinase inhibitor
Source text: (§1) The cell lines HCT-116, HT-29, GEO, Colo205, SW480, SW620, BxPC3, HPAC, CFPAC-1, MiaPaca-2, Panc1, A1165, MDA-MB-231, MDA-MB-435, DU4475, and MDA-MB468 were routinely cultured in media as prescribed by the ATCC containing 10% FCS. With the exception of GEO tumor cells (obtained from Roswell Park Cancer Institute (RPCI)), and A1165 (obtained from FCRF (NCI-Frederick Cancer Research Facility)) all tumor cells were obtained from the ATCC.
(§2) IGF-1R inhibitor Compound PQIP: Synthesis of PQIP: cis-3-[3-(4-Methyl-piperazin-1-yl)-cyclobutyl]1-(2-phenyl-quinolin-7-yl)-imidazo[1,5-a]pyrazin-8-ylamine (PQIP; see structure below), is a 1,3-disubstituted-8-amino-imidazopyrazine derivative synthesized by the methods described in patent application number WO 2005/097800 A1. Compound identity and purity (>99%) was verified by ^1H and ^13C nuclear magnetic resonance, mass spectrometry (MS), and high-performance liquid chromatography using Bruker Advance 400, WatersMicromass ZQ, and Waters LC Module I Plus instruments, respectively, as well as by elemental analysis. PQIP was dissolved in DMSO at 10 mmol/L for use in biochemical or cellular assays done in vitro. For in vivo studies, PQIP was dissolved in 25 mmol/L tartaric acid at an appropriate concentration to deliver the desired dose at 20 mL/kg by oral gavage.
(§3) For measuring cell viability, Cell-Titer Glo assay was used, which is available as a kit from Promega. The basis of the assay is a luminescent quantitation of ATP present in a cell culture plate well. In essence, the greater the number of viable cells in the well, the greater the level of ATP present. The assay utilizes a substrate that binds ATP to produce a luminescent signal, which can be read on a luminometer. Unless otherwise noted, the manufacturer's instructions were followed exactly. Briefly, on Day 1, cells were plated in 120 μl of 10% serum-containing growth media at a density of 4000 cells/well in a white polystyrene 96 well assay plate. On day 2, cells were treated with 15 μl of 10× concentration of the IGF-1R inhibitor (e.g. Compound 66, PQIP) or DMSO alone for a final well volume of 150 μl. After 72 h incubation with the inhibitor, the cells were assayed. Results were calculated as a fraction of the DMSO controlled cells.

HPAC cells = test: Cell-Titer Glo cell growth inhibition; assay type: cell-based, human; conditions: growth inhibition by an IGF-1R kinase inhibitor
Source text: as §1, §2, §3

MiaPaca-2 cells = test: Cell-Titer Glo cell growth inhibition; assay type: cell-based, human; conditions: MiaPaca-2, growth inhibition by an IGF-1R kinase inhibitor
Source text: as §1, §2, §3

GEO cells = test: Cell-Titer Glo cell growth inhibition; assay type: cell-based, human; conditions: growth inhibition by an IGF-1R kinase inhibitor
Source text: as §1, §2, §3

Panc1 cells = test: Cell-Titer Glo cell growth inhibition; assay type: cell-based, human; conditions: Panc1, growth inhibition by an IGF-1R kinase inhibitor
Source text: as §1, §2, §3

HT-29 cells = test: Cell-Titer Glo cell growth inhibition; assay type: cell-based, human; conditions: HT-29, growth inhibition by an IGF-1R kinase inhibitor
Source text: as §1, §2, §3

CFPAC cells = test: Cell-Titer Glo cell growth inhibition; assay type: cell-based, human; conditions: growth inhibition by an IGF-1R kinase inhibitor
Source text: as §1, §2, §3

Colo205 cells = test: Cell-Titer Glo cell growth inhibition; assay type: cell-based, human; conditions: Colo205, growth inhibition by an IGF-1R kinase inhibitor
Source text: as §1, §2, §3

DLD-1 cells = test: Cell-Titer Glo cell growth inhibition; assay type: cell-based, human
Experimental: as §3, with “IGF-1R inhibitor Compound PQIP: […] PQIP was dissolved in DMSO at 10 mmol/L for use in biochemical or cellular assays done in vitro. For in vivo studies, PQIP was dissolved in 25 mmol/L tartaric acid at an appropriate concentration to deliver the desired dose at 20 mL/kg by oral gavage. For” for “For”

RKO cells = test: Cell-Titer Glo cell growth inhibition; assay type: cell-based, human
Experimental: as §3, with “IGF-1R inhibitor Compound PQIP: […] PQIP was dissolved in DMSO at 10 mmol/L for use in biochemical or cellular assays done in vitro. For in vivo studies, PQIP was dissolved in 25 mmol/L tartaric acid at an appropriate concentration to deliver the desired dose at 20 mL/kg by oral gavage. For” for “For”

[1] = system: panel comprised of 28 tumor cell lines; test: Cell-Titer Glo cell growth inhibition, tumor cell line panel; assay type: cell-based, human; conditions: for inhibition at 3 µM: Homo sapiens, 3 μM PQIP, 28 tumor cell lines
Experimental: (§4) The NSCLC lines with IGF-1R, H292, H358, H322, H441, A549, Calu6, H460, H1703 and SW1573 were cultured in the appropriate ATCC recommended supplemented media. Cell extracts were prepared by detergent lysis ((50 mM Tris-HCl, pH8, 150 mM NaCl, 1% NP-40, 0.5% NaDeoxycholate, 0.1% SDS) containing protease and phosphatase inhibitors. The soluble protein concentration was determined by micro-BSA assay (Pierce, Rockford Ill.).
as §1
as §2, with “For in vivo studies, PQIP was dissolved in 25 mmol/L tartaric acid at an appropriate concentration to deliver the desired dose at 20 mL/kg by oral gavage.” left out
(§5) For measuring cell viability, Cell-Titer Glo assay was used, which is available as a kit from Promega. The basis of the assay is a luminescent quantitation of ATP present in a cell culture plate well. […] The assay utilizes a substrate that binds ATP to produce a luminescent signal, which can be read on a luminometer. […] Results were calculated as a fraction of the DMSO controlled cells.

HCT-116 cells = test: Cell-Titer Glo cell growth inhibition; assay type: cell-based; conditions: Homo sapiens, 3 μM PQIP, activating mutation in PI3K
Source text: as §1
IGF-1R inhibitor Compound PQIP: Synthesis of PQIP: cis-3-[3-(4-Methyl-piperazin-1-yl)-cyclobutyl]1-(2-phenyl-quinolin-7-yl)-imidazo[1,5-a]pyrazin-8-ylamine (PQIP; see structure below), is a 1,3-disubstituted-8-amino-imidazopyrazine derivative synthesized by the methods described in patent application number WO 2005/097800 A1. […]
as §5

H460 cells = test: Cell-Titer Glo cell growth inhibition; assay type: cell-based, human
Experimental: as §4
IGF-1R inhibitor Compound 66 (i.e. 3-(3-Azetidin-1-ylmethyl-cyclobutyl)-1-(2-phenyl-quinolin-7-yl)-imidazo[1,5-a]pyrazin-8-ylamine; see structure below) stock concentration was 10 mM in 100% DMSO (dimethyl sulfoxide). Serial dilutions (1:3 or 1:4) were used to establish the 50% inhibitory dose of IGF-1R inhibitor. Before dosing, inhibitor was diluted in 100% DMSO, and then added to the cells at desired final concentrations in duplicates. The final DMSO concentration was between 0.3-0.5%. […]
as §5

MCF-7 cells = test: Cell-Titer Glo cell growth inhibition; assay type: cell-based; conditions: Homo sapiens, MCF7, 3 μM PQIP, activating mutation in PI3K
Experimental: as §3, with “The” for “For measuring cell viability, Cell-Titer Glo assay was used, which is available as a kit from Promega. The”, “On day 2, cells were treated with 15 μl of 10× concentration of the IGF-1R inhibitor (e.g. Compound 66, PQIP) or DMSO alone for a final well volume of 150 μl.” left out

IGF-1R kinase = IGF-1R kinase (Homo sapiens, UniProt P08069); test: IGF-1R kinase inhibition; assay type: biochemical; conditions: IGF-1R kinase inhibitor potency, approx.
H292 cells = test: Cell-Titer Glo cell growth inhibition; assay type: cell-based, human; conditions: NSCLC cell line H292
Experimental: as §4
(§6) IGF-1R inhibitor Compound 66 (i.e. 3-(3-Azetidin-1-ylmethyl-cyclobutyl)-1-(2-phenyl-quinolin-7-yl)-imidazo[1,5-a]pyrazin-8-ylamine; see structure below) stock concentration was 10 mM in 100% DMSO (dimethyl sulfoxide). Serial dilutions (1:3 or 1:4) were used to establish the 50% inhibitory dose of IGF-1R inhibitor. Before dosing, inhibitor was diluted in 100% DMSO, and then added to the cells at desired final concentrations in duplicates. The final DMSO concentration was between 0.3-0.5%. Compound 66 was synthesized by the methods described in published International patent application number WO 2005/097800 A1.
as §3

H358 cells = test: Cell-Titer Glo cell growth inhibition; assay type: cell-based, human; conditions: NSCLC cell line H358
Experimental: as §4, §6, §3

H441 cells = test: Cell-Titer Glo cell growth inhibition; assay type: cell-based, human; conditions: NSCLC cell line H441
Experimental: as §4, §6, §3

A549 cells = test: Cell-Titer Glo cell growth inhibition; assay type: cell-based, human; conditions: NSCLC cell line A549
Experimental: as §4, §6, §3

SW1573 cells = test: Cell-Titer Glo cell growth inhibition; assay type: cell-based, human
Experimental: as §4, §6, §3

Sequence of IGF-1R kinase (P08069 31-1367): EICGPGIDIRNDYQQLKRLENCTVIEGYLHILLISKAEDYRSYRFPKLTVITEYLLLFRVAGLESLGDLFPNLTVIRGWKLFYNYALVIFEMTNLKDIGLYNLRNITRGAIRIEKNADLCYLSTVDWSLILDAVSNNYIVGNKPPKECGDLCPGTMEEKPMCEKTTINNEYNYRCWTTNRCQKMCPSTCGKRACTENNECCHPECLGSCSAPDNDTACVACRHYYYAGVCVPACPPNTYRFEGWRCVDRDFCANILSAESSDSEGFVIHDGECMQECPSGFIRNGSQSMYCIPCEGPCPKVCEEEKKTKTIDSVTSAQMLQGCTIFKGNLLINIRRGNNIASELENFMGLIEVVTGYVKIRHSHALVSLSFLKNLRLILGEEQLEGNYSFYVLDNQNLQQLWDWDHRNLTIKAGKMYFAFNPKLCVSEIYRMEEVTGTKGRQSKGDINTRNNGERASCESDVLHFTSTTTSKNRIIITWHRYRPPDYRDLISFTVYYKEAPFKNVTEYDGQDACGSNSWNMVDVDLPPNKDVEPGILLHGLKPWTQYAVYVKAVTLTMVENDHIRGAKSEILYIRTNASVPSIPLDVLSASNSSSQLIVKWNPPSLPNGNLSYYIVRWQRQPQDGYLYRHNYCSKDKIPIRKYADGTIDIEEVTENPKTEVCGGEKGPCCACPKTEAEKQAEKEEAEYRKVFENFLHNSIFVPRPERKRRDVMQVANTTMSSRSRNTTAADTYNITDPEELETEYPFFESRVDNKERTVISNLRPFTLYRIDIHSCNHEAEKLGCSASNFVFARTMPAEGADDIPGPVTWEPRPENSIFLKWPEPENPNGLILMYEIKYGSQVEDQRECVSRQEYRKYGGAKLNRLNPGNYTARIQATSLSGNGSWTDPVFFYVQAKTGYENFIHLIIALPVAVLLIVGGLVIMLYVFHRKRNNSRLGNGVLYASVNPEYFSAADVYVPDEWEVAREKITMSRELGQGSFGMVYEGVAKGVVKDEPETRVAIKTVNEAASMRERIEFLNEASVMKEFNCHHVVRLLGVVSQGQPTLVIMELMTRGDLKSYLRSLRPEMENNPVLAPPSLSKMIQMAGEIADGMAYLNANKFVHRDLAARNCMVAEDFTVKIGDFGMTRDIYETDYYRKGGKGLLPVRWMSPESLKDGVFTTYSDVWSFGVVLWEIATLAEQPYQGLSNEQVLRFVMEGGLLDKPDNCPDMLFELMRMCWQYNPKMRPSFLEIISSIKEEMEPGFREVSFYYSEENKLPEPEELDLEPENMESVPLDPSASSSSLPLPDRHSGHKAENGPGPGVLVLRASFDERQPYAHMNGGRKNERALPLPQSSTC

CN1CCN([C@H]2C[C@@H](c3nc(-c4ccc5ccc(-c6ccccc6)nc5c4)c4c(N)nccn43)C2)CC1 [PQIP, cis-3-[3-(4-Methyl-piperazin-1-yl)-cyclobutyl]1-(2-phenyl-quinolin-7-yl)-imidazo[1,5-a]pyrazin-8-ylamine]
sensitivity to IGF-1R inhibition (BxPC3 cells): relatively sensitive | sensitivity to IGF-1R inhibition (HPAC cells): relatively sensitive | sensitivity to IGF-1R inhibition (MiaPaca-2 cells): relatively insensitive | sensitivity to IGF-1R inhibition (GEO cells): relatively sensitive | sensitivity to IGF-1R inhibition (Panc1 cells): relatively insensitive | sensitivity to IGF-1R inhibition (HT-29 cells): relatively sensitive | sensitivity to IGF-1R inhibition (CFPAC cells): relatively sensitive | sensitivity to IGF-1R inhibition (Colo205 cells): relatively sensitive | sensitivity to IGF-1R inhibition (DLD-1 cells; DLD1, growth inhibition by an IGF-1R kinase inhibitor): relatively sensitive | inhibition at 3 µM (DLD-1 cells; Homo sapiens, DLD-1 cells, 3 μM PQIP, activating mutation in PI3K): < 20% | inhibition at 3 µM (RKO cells; Homo sapiens, RKO cells, 3 μM PQIP, activating mutation in PI3K): < 20% | sensitivity to IGF-1R inhibition (RKO cells; RKO, growth inhibition by an IGF-1R kinase inhibitor): relatively insensitive | inhibition at 3 µM ([1]; read-out: median growth inhibition for the panel): 37% | inhibition at 3 µM ([1]; 72 hours after dosing, read-out: % maximal growth inhibition, range of sensitivities over the panel): 2 to 72% | effects of varying concentrations on cell proliferation ([1]; all cell lines, data not shown): dose-dependent | inhibition at 3 µM (HCT-116 cells): > 70% | inhibition at 3 µM (H460 cells; Homo sapiens, NCI-H460 cells, 3 μM PQIP, activating mutation in PI3K): < 20% | inhibition at 3 µM (MCF-7 cells): > 70%

Nc1nccn2c1c(-c1ccc3ccc(-c4ccccc4)nc3c1)nc2[C@H]1C[C@@H](CN2CCC2)C1 [Compound 66, 3-(3-Azetidin-1-ylmethyl-cyclobutyl)-1-(2-phenyl-quinolin-7-yl)-imidazo[1,5-a]pyrazin-8-ylamine]
IC50 (IGF-1R kinase): ~50 nM | sensitivity to Compound 66-mediated growth inhibition (H292 cells): sensitive | sensitivity to Compound 66-mediated growth inhibition (H358 cells): sensitive | sensitivity to Compound 66-mediated growth inhibition (H441 cells): sensitive | sensitivity to Compound 66-mediated growth inhibition (A549 cells): intermediate sensitivity | inhibition at 10 µM (SW1573 cells; Homo sapiens, SW1573 cells, 10 μM inhibitor, read-out: growth inhibition in vitro): < 10% | sensitivity to Compound 66-mediated growth inhibition (SW1573 cells; NSCLC cell line SW1573): relatively insensitive | sensitivity to Compound 66-mediated growth inhibition (H460 cells; NSCLC cell line H460): relatively insensitive
